pEC50, pKi: −log10 of the molar value. Bridge positions count the residues as written; N and C are the ends. Peptide text beside a SMILES is read from it.
What was measured:
[1] = target: T1, Neuropeptide Y receptor type 2 (Homo sapiens, UniProt P49146); experiment: Agonist activity at human NPY2 receptor expressed in human KAN-TS cells by [35S]GTP-gamma-S incorporation assay; type: functional, cell-based
T1 sequence (P49146 whole entry): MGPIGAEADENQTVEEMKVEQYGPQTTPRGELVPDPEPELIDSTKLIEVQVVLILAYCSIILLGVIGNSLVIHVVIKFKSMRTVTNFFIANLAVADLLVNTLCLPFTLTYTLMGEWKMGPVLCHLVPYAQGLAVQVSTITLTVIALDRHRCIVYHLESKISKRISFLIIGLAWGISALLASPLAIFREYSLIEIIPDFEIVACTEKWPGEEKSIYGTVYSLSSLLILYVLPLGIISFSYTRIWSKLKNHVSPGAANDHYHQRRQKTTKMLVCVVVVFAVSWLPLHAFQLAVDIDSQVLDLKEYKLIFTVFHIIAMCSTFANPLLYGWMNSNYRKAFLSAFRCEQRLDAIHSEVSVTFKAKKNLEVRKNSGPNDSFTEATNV

[2] = target: T2, Neuropeptide Y receptor type 1 (Homo sapiens, UniProt P25929); experiment: Displacement of [125I]PYY from NPY1 receptor expressed in human SK-N-MC cells; type: cell-based
T2 sequence (P25929 whole entry): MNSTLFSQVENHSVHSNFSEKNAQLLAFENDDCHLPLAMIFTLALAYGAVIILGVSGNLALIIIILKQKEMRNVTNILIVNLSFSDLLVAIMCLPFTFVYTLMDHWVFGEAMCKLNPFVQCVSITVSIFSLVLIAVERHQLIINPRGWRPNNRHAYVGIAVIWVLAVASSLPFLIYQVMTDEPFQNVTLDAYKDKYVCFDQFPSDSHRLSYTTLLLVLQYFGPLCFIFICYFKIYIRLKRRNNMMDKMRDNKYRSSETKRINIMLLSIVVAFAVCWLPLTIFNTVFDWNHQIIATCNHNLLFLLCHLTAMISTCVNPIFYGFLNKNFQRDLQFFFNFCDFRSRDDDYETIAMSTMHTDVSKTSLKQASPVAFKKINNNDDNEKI

[3] = target: T1, Neuropeptide Y receptor type 2; experiment: Displacement of human [125I]PYY from NPY2 receptor expressed in human KAN-TS cells; type: cell-based
[4] = target: T3, Neuropeptide Y receptor type 5 (Homo sapiens, UniProt Q15761); experiment: Displacement of [125I]PYY from NPY5 receptor expressed in human HEK293 cells; type: cell-based
T3 sequence (Q15761 whole entry): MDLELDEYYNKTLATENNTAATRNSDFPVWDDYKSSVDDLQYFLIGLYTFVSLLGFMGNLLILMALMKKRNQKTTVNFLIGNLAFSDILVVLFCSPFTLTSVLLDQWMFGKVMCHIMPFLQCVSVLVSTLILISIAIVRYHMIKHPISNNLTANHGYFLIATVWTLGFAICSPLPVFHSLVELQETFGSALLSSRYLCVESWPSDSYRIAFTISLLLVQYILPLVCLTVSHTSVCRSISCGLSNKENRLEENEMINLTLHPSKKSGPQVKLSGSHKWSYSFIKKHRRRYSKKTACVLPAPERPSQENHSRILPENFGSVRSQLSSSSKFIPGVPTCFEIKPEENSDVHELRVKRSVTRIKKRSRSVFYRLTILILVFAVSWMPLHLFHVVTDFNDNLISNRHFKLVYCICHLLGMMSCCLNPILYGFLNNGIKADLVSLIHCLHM

pEC50 [1]	pKi [2]	pKi [3]	pKi ([4]; hek293)	pEC50 ([1]; kan-ts)	pKi ([2]; sk-n-mc)	pKi ([3]; kan-ts)	pKi [4]	Compound
7.89	6.93	8.05	–	–	–	–	–	CC(=O)N[C@@H](C)C(=O)N[C@@H](CO)C(=O)N[C@@H](CC(C)C)C(=O)N[C@@H](CCCNC(=N)N)C(=O)N[C@@H](Cc1cnc[nH]1)C(=O)N[C@@H](Cc1ccc(O)cc1)C(=O)N[C@@H](CC(C)C)C(=O)N[C@@H](CC(N)=O)C(=O)N[C@@H](CC(C)C)C(=O)N[C@H](C(=O)N[C@H](C(=O)N[C@@H](CCCNC(=N)N)C(=O)N[C@@H](CCC(N)=O)C(=O)N[C@@H](CCCNC(=N)N)C(=O)N[C@@H](Cc1ccc(O)cc1)C(N)=O)[C@@H](C)O)C(C)C
–	–	–	< 6.00	7.51	< 6.00	7.12	–	CC[C@H](C)[C@@H]1NC(=O)[C@H](CC(C)C)NC(=O)[C@H](CC(N)=O)NC(=O)[C@@H](NC(=O)[C@H](Cc2ccc(O)cc2)NC(=O)[C@H](Cc2cnc[nH]2)NC(=O)[C@H](CCCN=C(N)N)NC(C)=O)CCCCNC(=O)CC[C@@H](C(=O)N[C@@H](CCCN=C(N)N)C(=O)N[C@@H](CCC(N)=O)C(=O)N[C@@H](CCCN=C(N)N)C(=O)N[C@@H](Cc2ccc(O)cc2)C(N)=O)NC1=O (Ac-RHYKNLIERQRY-NH2; lactam 4-8)
6.37	< 6.00	6.17	–	–	–	–	< 6.00	Ac-HYLNLVTRQRY-NH2

Source: ChEMBL document CHEMBL1138389, “Identification of selective neuropeptide Y2 peptide agonists” (Bioorg Med Chem Lett, 2007)
